Laboratory results published in patent US20200121652A1, “COMPOUNDS HAVING CASPASE INHIBITORY ACTIVITY, PHARMACEUTICAL AGENT CONTAINING SAID COMPOUNDS AND FOR TREATING OR PREVENTING CORNEAL ENDOTHELIAL SYMPTOMS, DISORDERS, OR DISEASES, AND APPLICATION OF SAID PHARMACEUTICAL AGENT” (The Doshisha, priority 2017, published 2020).

Assays:
Assay type in all cases: cell-based
[1] = tested on: Fuchs' endothelial corneal dystrophy patient derived immortalized human corneal endothelial cells; test: Phase contrast microscope observation of cell damage after TGF-β2 stimulation (Examples 4-6); conditions: then TGF-β2 10 ng/ml 24 h; for disorder in corneal endothelial cells (phase contrast microscope): pretreated 24 h
Procedure: (§1) The medium was removed from the culture dish in which Fuchs' endothelial corneal dystrophy patient derived immortalized human corneal endothelial cells were being cultured, and the cells were supplemented with 1× PBS (−) that was preheated to 37° C., and were washed. This was repeated twice. The cells were supplemented with 1× PBS (−) again and incubated for 5 minutes at 37° C. (5% CO2). After removing the PBS (−), the cells were supplemented with 0.05% Trypsin-EDTA (nacalai tesque, 32778-34) and incubated for 5 minutes at 37° C. (5% CO2). The cells were then suspended in a medium, and collected by centrifugation at 1500 rpm for 3 minutes. DMEM (nacalai tesque, 08456-36) +10% FBS (Sigma, 13H467)+1% P/S (nacalai tesque, 26252-94) was used as the medium.
Fuchs' endothelial corneal dystrophy patient derived immortalized human corneal endothelial cells (lot: iFECD3-5) were seeded on a 12-well plate at a ratio of 5.0×10^4 cells per well, and cultured for 24 hours at 37° C. (5% CO2). DMEM+10% FBS+1% P/S was used as the medium.
(§2) After 24 hours, the medium was removed, fluticasone furoate (AXON MEDCHEM, 1172) was added so that the final concentration was each 0.0001, 0.0003, 0.001, 0.003, 0.01, 0.03, 0.1, 0.3, 1, and 3 μM, and the cells were cultured for 24 hours. DMEM+2% FBS+1% P/S was used as the medium.
After 24 hours, the medium was removed, fluticasone furoate was added together with 10 ng/ml Transforming Growth Factor-82 Human recombinant (WAKO, 200-19911) so that the final concentration was each 0.0001, 0.0003, 0.001, 0.003, 0.01, 0.03, 0.1, 0.3, 1, and 3 μM, and the cells were cultured for 24 hours. Medium: DMEM+2% FBS+1% P/S
After 24 hours, cell morphology and apoptosis were observed using a phase difference microscope.
In this example, TGF-β inhibiting activity of ZK216348 (AXON MEDCHEM, AXON2239), which is one of SEGRMs, was tested. The operation by a phase contrast microscope was carried out in the same manner as Example 4. 10 μM of ZK216348 was used as the final concentration.
After 24 hours, the medium was removed, ZK216348 was added together with 10 ng/ml Transforming Growth Factor-β2 Human recombinant (WAKO, 200-19911) so that the final concentration was […], and the cells were cultured for 24 hours. DMEM+2% FBS+1% P/S was used as the medium.

[2] = tested on: Fuchs' endothelial corneal dystrophy patient derived immortalized human corneal endothelial cells; test: Caspase-Glo 3/7 Assay after pretreatment and TGF-β2 stimulation (Examples 4-5); conditions: for activity of Caspase 3/7: TGF-β2 10 ng/ml 24 h; for ratio of (caspase 3/7 activity)/(cell viability): agent concentration 0.0001 to 3 μM (FIG. 12)
Procedure: as §1
Fuchs' endothelial corneal dystrophy patient derived immortalized human corneal endothelial cells (lot: iFECD3-5) were seeded on a 96-well plate at a ratio of 7×10^3 cells per well, and cultured at 37° C. (5% CO2) until reaching confluence. DMEM+10% FBS+1% P/S was used as the medium.
as §2
After 24 hours, the medium was removed, 10 ng/ml Transforming Growth Factor-82 Human recombinant (WAKO, 200-19911) and fluticasone furoate were added so that the final concentration was each 0.0001, 0.0003, 0.001, 0.003, 0.01, 0.03, 0.1, 0.3, 1, and 3 μM, and the cells were cultured for 24 hours. DMEM+2% FBS+1% P/S was used as the medium.
After observation, measurement of caspase 3/7 activity by Caspase-Glo 3/7 Assay was carried out with the following procedure.
The medium was discarded to achieve 50 μl per well. 50 μl/well of CaspaseGlo 3/7 Assay Reagent (mixture of Caspase-Glo 3/7 Assay Buffer and Caspase-Glo 3/7 Assay Substrate) (Promega, G8091) solution was added so as to achieve 1:1 with the medium. The operations hereafter were carried out while being shaded. A shaker was used to mix the content well for 2 minutes at about 120 r/min to then be left still for 40 minutes at room temperature. After being left still, 80 μl was transferred to Assay plate (Corning, 3912, Assay plate 96 well, white polystyrene) and […] was measured using GloMax-Multi Detection System (Promega, E7051). Furthermore, 10 μM Z-VD-FMK (WAKO, 262-02061), which is a caspase inhibitor, was used as the positive control.
In this example, TGF-β inhibiting activity of fluticasone propionate (AXON MEDCHEM, 1404), which is one of SEGRAs, was tested. The test was conducted by the same procedure as Example 4.

[3] = tested on: Fuchs' endothelial corneal dystrophy patient derived immortalized human corneal endothelial cells; test: Cell Titer-Glo Luminescent Cell Viability Assay (Examples 4-5); conditions: all concentrations of 0.0001, 0.0003, 0.001, 0.003, 0.01, 0.03, 0.1, 0.3, 1, and 3 μM
Procedure: as §1
Fuchs' endothelial corneal dystrophy patient derived immortalized human corneal endothelial cells (lot: iFECD3-5) were seeded on a 96-well plate at a ratio of 7×10^3 cells per well, and cultured at 37° C. (5% CO2) until reaching confluence. DMEM+10% FBS+1% P/S was used as the medium. […]
Cell viability was analyzed using Cell Titer-Glo Luminescent Cell Viability Assay by the following procedure.
The medium was discarded to achieve 50 μl per well. […] After being left still, 80 μl was transferred to Assay plate (Corning, 3912, Assay plate 96 well, white polystyrene) and […] was measured using GloMax-Multi Detection System (Promega, E7051). […]

[4] = tested on: immortalized Fuchs' endothelial corneal dystrophy cells; test: Concentration-dependent caspase 3/7 activity under TGF-β2 stimulation (Example 3); conditions: Homo sapiens, TGF-β2 10 ng/mL, 28 hours; for activity at 1 µM: agent 1 μM; for activity at 0.1 µM: agent 100 nM; for activity at 10 µM: agent 10 μM
Procedure: 7×10^3 immortalized Fuchs' endothelial corneal dystrophy cells were seeded on a 96-well plate and were cultured for 24 hours under the condition of 5% CO2 at 37° C.
After 28 hours under the condition of 5% CO2 at 37° C., cell morphology was observed using a phase difference microscope. Caspase 3/7 activity was then measured using Caspase-Glo 3/7 Assay (Promega, #G8091). DMEM+2% FBS+1% P/S was used as the medium. Caspase 3/7 activity and cell viability in this example were measured using GloMax-Multi Detection System (Promega, E7051).
Caspase 3/7 activity below 80% was used as a indicator indicating whether an agent can be used for treating or preventing a corneal endothelial condition, disorder, or disease, or whether an agent can be used as a caspase inhibitor (the underlines in FIG. 4A-1, FIG. 4A-2 and FIG. 4A-3, and FIG. 4B-1, FIG. 4B-2 and FIG. 4B-3).

SMILES: Cc1noc(=O)c2ccc(NC(=O)C(O)(CC(C)(C)c3cccc4c3OCC4)C(F)(F)F)cc12 (single isomer, unassigned; (+)) [ZK216348, (+)-4-(2,3-dihydro-1-benzofuran-7-yl)-2-hydroxy-4-methyl-N-(4-methyl-1-oxo-2,3-benzoxazine-6-yl)-2-(trifluoromethyl)pentanamide]
- free cells and disorder in corneal endothelial cells (phase contrast microscope) ([1]; pretreated, final concentration 10 μM): free cells were decreased and a disorder in corneal endothelial cells was suppressed

SMILES: C[C@@H]1C[C@H]2[C@@H]3C[C@H](F)C4=CC(=O)C=C[C@]4(C)[C@@]3(F)[C@@H](O)C[C@]2(C)[C@@]1(OC(=O)c1ccco1)C(=O)SCF [fluticasone furoate]
- disorder in corneal endothelial cells (phase contrast microscope) ([1]; 0.0001 and 0.0003 μM): effect of suppressing a disorder in corneal endothelial cells was confirmed
- disorder in corneal endothelial cells (phase contrast microscope) ([1]; 0.001, 0.003, 0.01, 0.03, 0.1, 0.3, 1, and 3 μM): effectively suppressed
- activity of Caspase 3/7 ([2]; 0.003, 0.01, 0.03, 0.1, 0.3, 1, and 3 μM): almost the same as those in the Control group
- activity of Caspase 3/7 ([2]; in the order of 0.0001, 0.0003, and 0.001 μM): decreased
- ratio of (caspase 3/7 activity)/(cell viability) [2]: below 0.8
- cell viability [3]: no significant difference from the Control group

SMILES: CCC(=O)O[C@]1(C(=O)SCF)[C@H](C)C[C@H]2[C@@H]3C[C@H](F)C4=CC(=O)C=C[C@]4(C)[C@@]3(F)[C@@H](O)C[C@@]21C [fluticasone propionate]
- disorder in corneal endothelial cells (phase contrast microscope) ([1]; 0.0001, 0.0003, 1, and 3 μM): effect of suppressing a disorder in corneal endothelial cells was confirmed
- disorder in corneal endothelial cells (phase contrast microscope) ([1]; 0.001, 0.003, 0.01, 0.03, and 0.1 μM): effectively suppressed
- activity of Caspase 3/7 ([2]; 0.01, 0.03, 0.1, 0.3, and 1 μM): almost the same as those in the Control group
- activity of Caspase 3/7 ([2]; in the order of 0.0001, 0.0003, 0.001, and 0.003 μM): decreased
- ratio of (caspase 3/7 activity)/(cell viability) [2]: below 0.8
- cell viability [3]: no significant difference from the Control group

SMILES: CO[C@H]1/C=C/O[C@@]2(C)Oc3c(C)c(O)c4c(O)c(c(/C=N/N5CCN(C6CCCC6)CC5)c(O)c4c3C2=O)NC(=O)/C(C)=C\C=C\[C@H](C)[C@H](O)[C@@H](C)[C@@H](O)[C@@H](C)[C@H](OC(C)=O)[C@@H]1C [Rifapentine]
- activity at 1 µM [4]: ≤ 80%

SMILES: CCC(=O)OCC(=O)[C@@]1(OC(=O)CC)[C@@H](C)C[C@H]2[C@@H]3CCC4=CC(=O)C=C[C@]4(C)[C@@]3(Cl)[C@@H](O)C[C@@]21C [Beclomethasone Dipropionate]
- activity at 0.1 µM [4]: ≤ 80%
- activity at 1 µM [4]: ≤ 80%
- activity at 10 µM [4]: ≤ 80%

SMILES: COc1ccccc1OCCNCC(O)COc1cccc2[nH]c3ccccc3c12 (stereo not shown) [Carvedilol]
- activity at 10 µM [4]: ≤ 80%

SMILES: C[C@]12C=CC(=O)C=C1CC[C@@H]1[C@@H]2[C@@H](O)C[C@@]2(C)[C@H]1CC[C@]2(O)C(=O)CO [Prednisolone]
- activity at 0.1 µM [4]: ≤ 80%
- activity at 1 µM [4]: ≤ 80%
- activity at 10 µM [4]: ≤ 80%

SMILES: CO[C@H]1C[C@@H]2CC[C@@H](C)[C@@](O)(O2)C(=O)C(=O)N2CCCC[C@H]2C(=O)O[C@H]([C@H](C)C[C@@H]2CC[C@@H](OCCO)[C@H](OC)C2)CC(=O)[C@H](C)/C=C(\C)[C@@H](O)[C@@H](OC)C(=O)[C@H](C)C[C@H](C)/C=C/C=C/C=C/1C [Everolimus]
- activity at 0.01 µM ([4]; agent 10 nM): ≤ 80%
- activity at 0.1 µM [4]: ≤ 80%
- activity at 1 µM [4]: ≤ 80%
- activity at 10 µM [4]: ≤ 80%
